From patent publication US20250275964A1, “METHODS OF INHIBITING LIVER-TYPE GLUTAMINASE, GLS2” (CORNELL UNIVERSITY, priority 2019, published 2025)

What was measured:
[1] = system: TSE cells stably expressing GLS2; experiment: 6-day cell proliferation assay, TSE stably expressing GLS2; type: cell-based, human
Method: (§1) Culture medium was added to 12-well plates (1 ml/well) and wells were seeded with cells at Day 0 as follows. MCF7, T-47D, BT-474, HCC38 cells: […] cells/well. MDA-MB-453 and MDA-MB-231 cells: 1×10^4 cells/well. TSE and Hs 578T cells: 0.3×10^4 cells/well. After 16 hours, culture medium was replaced with fresh medium supplemented with appropriate concentrations of inhibitors and was subsequently replaced every 48 hours. On Day 6 cells were trypsinized and suspended in an appropriate volume of culture medium, and the total number of cells per well was determined using a hemocytometer or a TC20 Automated Cell Counter (Bio-Rad).
(§2) Vectors for expressing human GAC or GLS2 in breast cancer cell lines were based on pCDNA3.1/V5-His TOPO (Thermo Fisher Scientific), with the appropriate gene sub-cloned in and the tag switched to HA-tag or myc-tag for immunofluorescence experiments. Vectors pQE80-GAC-72-598 and pQE80-GLS2-38-602, for expressing the processed forms of human GAC (residues 72 to 598) or GLS2 (residues 38 to 602) in E. coli, were described in Huang et al., “Characterization of the Interactions of Potent Allosteric Inhibitors with Glutaminase C, a Key Enzyme in Cancer Cell Glutamine Metabolism,” J. Biol. Chem. 293:3535-3545 (2018), which is hereby incorporated by reference in its entirety.
(§3) For 60 mm dish format. 0.2 ml Opti-MEM (Gibco) containing […] of the appropriate DNA construct, along with 0.2 ml Opti-MEM containing 12 μl Lipofectamine 2000 (Invitrogen), were separately incubated at room temperature for 5 min. The two solutions were combined and incubated for an additional 20 min, mixed with 1.6 ml culture medium and added to cells. After 5 hours incubation at 37° C. the transfection mixture was replaced with fresh culture medium, and cells were then incubated for an additional 48 hours to allow for ectopic expression of GLS or GLS2. To select for cells stably expressing the DNA construct, culture medium supplemented with 500 μg/ml G-418 disulfate (Research Products International) was added and replaced every 2 days for 2-3 weeks until isolated colonies ˜2 mm in diameter were present. Individual colonies were transferred to a 12-well plate (1 colony per well) using sterile blotting paper soaked in trypsin solution and were then cultured in medium supplemented with 250 μg/ml G-418 disulfate. All colonies were screened by western blot for ectopic expression, and positive clones were maintained in medium supplemented with 250 μg/ml G-418 disulfate.

T-47D cells = experiment: 6-day cell proliferation assay, T-47D; type: cell-based, human; settings: proliferation over 6 days
Method: (§4) Human breast cancer cell lines MCF7, BT-474, T-47D, MDA-MB-453, MDA-MB-231, Hs 578T, HCC38, SK-BR-3, and DU4475 were purchased from the American Type Culture Collection (ATCC) and no additional cell authentication was performed. The TSE human breast cancer cell line was supplied by Dr. Steven Abcouwer (University of Michigan). All breast cancer cells were cultured at 37° C. under a 5% CO2 atmosphere in RPMI 1640 medium containing 2 mM glutamine (Gibco) and supplemented with 10% fetal bovine serum (FBS) (Gibco). The 293T cell line (ATCC) used for generating lentivirus particles was cultured as above but using DMEM, high glucose (Gibco).
as §1

HCC38 cells = experiment: 6-day cell proliferation assay, HCC38; type: cell-based, human; settings: HCC38, proliferation over 6 days
Method: as §4, §1

[2] = system: TSE cells carrying the plasmid vector only; experiment: 6-day cell proliferation assay, TSE vector only; type: cell-based, human; settings: 6 days
Method: as §1, §2
(§5) For 60 mm dish format. […]

TSE cells = experiment: 6-day cell proliferation assay, TSE; type: cell-based, human
Method: as §4, §1

MCF7 cells = experiment: 6-day cell proliferation assay, MCF7; type: cell-based, human; settings: MCF7, proliferation over 6 days
Method: as §4, §1

[3] = system: MDA-MB-231 cells stably expressing GLS2; experiment: 6-day cell proliferation assay, MDA-MB-231 stably expressing GLS2; type: cell-based, human
Method: as §1, §2, §3

[4] = system: MDA-MB-231 cells carrying the plasmid vector only; experiment: 6-day cell proliferation assay, MDA-MB-231 vector only; type: cell-based, human; settings: 6 days
Method: as §1, §2, §5

DU4475 cells = experiment: 6-day cell proliferation assay, DU4475; type: cell-based, human; settings: DU4475, proliferation over 6 days
Method: as §4, §1

MDA-MB-453 cells = experiment: 6-day cell proliferation assay, MDA-MB-453; type: cell-based, human; settings: MDA-MB-453, proliferation over 6 days
Method: as §4, §1

[5] = system: MDA-MB-453 xenograft tumors; experiment: MDA-MB-453 xenograft tumor growth in mice; type: in vivo; settings: 10 mg/kg, 3 times per week from Day 14 for three weeks, NSG mice
Method: All experiments involving mice were carried out according to protocols approved by the Institutional Animal Care and Use Committee at Cornell University. In all cases, 6-8 week old female NOD.Cg-Prkdcscid Il2rg^tm1Wjl/SzJ (NSG) mice (The Jackson Laboratory) were used. For xenograft experiments, a suspension of MDA-MB-453 breast cancer cells (or derivative cell lines stably expressing shRNAs) was mixed 1:1 with Matrigel Matrix (BD Biosciences) to give a final concentration of 3×10^6 cells per 100 μl, and 3×10^6 cells were immediately injected into each of the two flanks of 6-8 week old female NOD.Cg-Prkdc^scid Il2rg^tm1Wjl/SzJ (NSG) mice (n=3 mice per condition). Tumor sizes were measured using calipers, and estimated volumes were calculated using the formula V=(π/6)×length×width^2, as described previously (Tomayko et al., “Determination of Subcutaneous Tumor Size in Athymic (Nude) Mice,” Cancer Chemother Pharmacol. 24:148-154 (1989), which is hereby incorporated by reference in its entirety). For experiments using MDA-MB-453 cells stably expressing shRNAs, mice were sacrificed after 6 weeks. For 968 treatment studies, when tumors of 1-2 mm diameter were detected, the mice were randomly divided into two groups and intraperitoneal (IP) injections of 968 (10 mg/kg) solution or carrier solution were initiated and carried out three times weekly. […]

BT-474 cells = experiment: 6-day cell proliferation assay, BT-474; type: cell-based, human; settings: BT-474, proliferation over 6 days
Method: as §4, §1

MDA-MB-231 cells = experiment: 6-day cell proliferation assay, MDA-MB-231; type: cell-based, human
Method: as §4, §1

[6] = TSE (parental), compared with GLS2 clones, 6 days
[7] = MDA-MB-231 GLS2 clone 1, 6 days
[8] = MDA-MB-231 GLS2 clone 2, 6 days
[9] = MDA-MB-231 (parental), compared with GLS2 clones, 6 days
[10] = MDA-MB-231, proliferation over 6 days

| EC50 ([3]; MDA-MB-231 with ectopic expression of GLS2, 6 days) [µM] | SMILES | EC50 ([1]; TSE GLS2 clone 1, 6 days) [µM] | EC50 ([1]; TSE GLS2 clone 2, 6 days) [µM] | EC50 ([1]; TSE with ectopic expression of GLS2, 6 days) [µM] | EC50 (T-47D cells) [µM] | EC50 (HCC38 cells) [µM] | EC50 [2] [µM] | EC50 (TSE cells; [6]) [µM] | EC50 (TSE cells; TSE, proliferation over 6 days) [µM] | EC50 (MCF7 cells) [µM] | EC50 [3, 7] [µM] | EC50 [3, 8] [µM] | EC50 [4] [µM] | EC50 (DU4475 cells) [µM] | EC50 (MDA-MB-453 cells) [µM] | tumor growth [5] | EC50 (BT-474 cells) [µM] | EC50 (MDA-MB-231 cells; [9]) [µM] | EC50 (MDA-MB-231 cells; [10]) [µM] |
| --- | --- | --- | --- | --- | --- | --- | --- | --- | --- | --- | --- | --- | --- | --- | --- | --- | --- | --- | --- |
| > 20 | O=C(Cc1ccccc1)Nc1nnc(CCSCCc2nnc(NC(=O)Cc3ccccc3)s2)s1 [BPTES] | > 20 | > 20 | > 20 | ~20 | 4.7 | 4 | 3 | 3.1 | ~20 | > 20 | > 20 | 1.3 | > 20 | ~20 | did not significantly impact tumor growth | ~20 | 2 | 2.1 |
| – | CN(C)c1ccc(C2Nc3ccc4ccccc4c3C3=C2C(=O)CC(C)(C)C3)cc1Br (stereo not drawn) [Compound 968] | 7 | 6 | – | 4 | 4 | 2 | 4 | 5 | 4 | 4 | 5 | 2 | 4 | 3 | robustly inhibited | 4 | 4 | 5 |
